Data published in US10982192B2, “Method for the induction of arterial-type of hemogenic endothelium from hPSCS” (Wisconsin Alumni Research Foundation, priority 2017, dated 2021).

How the values were obtained:
NOTCH1 = assay: Western blot of activated cleaved NOTCH1 (NOTCH:ICD) in D4 HE; format: cell-based, human; settings: D4 HE cultured for 24 h (D4+1); DAPT 10 μM or immobilized DLL1-Fc
Protocol: (§1) Human pluripotent stem cells, H1 hESC line, DF19-9-7T fibroblast-hiPSC line, IISH2i-BM9 bone marrow-iPSC line, and IISH3i-CB6 cord blood-iPSC line, were maintained and passaged in chemically defined conditions using vitronectin and E8 medium, as previously described^85. The human PSCs were differentiated into hematoendothelial lineages using a modified protocol previously described^35. On Day −1, hPSCs were singularized and plated on collagen IV-coated plates (0.5 μg/cm^2) at a cell density of 7,500 cells/cm^2 in E8 medium supplemented with 10 uM Rock inhibitor (Y-27632, Cayman Chemicals). On Day 0, the medium was changed to IF9S medium supplemented with BMP4, FGF2 (50 ng/ml), Activin A (15 ng/ml, Peprotech), LiCl (2 mM, Sigma), and ROCK inhibitor (0.5 μM, Cayman Chemicals) and cultured in hypoxia (5% O2, 5% CO2). On day 2, the medium was changed to IF9S medium supplemented with FGF2, VEGF (50 ng/ml, Peprotech), and 2.5 μM TGFβ inhibitor (SB-431542, Cayman Chemicals). On day 4, cell cultures were singularized and stained with anti-CD31 microbeads (Miltenyi) for 15 minutes. Cells were washed and HE were purified using CD31 antibody and MACS LS columns (Miltenyi). […] A sample of the purified cells was analyzed by flow cytometry, and experiments were continued only if the purity of the HE was over 95% CD144^+. […]

D5 HE:DLL4+ = assay: Blood production from D5 HE:DLL4+ in OP9 co-culture with NOTCH inhibition; format: cell-based, human; settings: treatment from D5 to D5+2, D5+2 to D5+4, and D5 to D5+4; 20 μM
Protocol: (§2) OP9, OP9-DLL4, and the inducible OP9-iDLL4 (made in-house) cell lines were maintained in αMEM with 20% FBS (GE) on gelatin-coated plates in normoxia as previously described^86. Using TrypLE (Thermo), OP9 were passaged at a 1:8 ratio every 3-4 days when they were 80% confluent. One day before co-culture with differentiated human HE cells, OP9 lines were treated with mitomycin C (1 mg/ml) for 2 hours and then plated at a density of 12,500 cells/cm^2 as previously described^87. D4 HE cells or D5 CD144^+ subsets were plated onto OP9 lines at a density between 1000 to 2000 cells/cm^2 in medium containing αMEM with 10% FBS (GE), TPO, SCF, IL-6 (50 ng/ml), IL-3, and FLT3L (10 ng/ml). Medium was changed after 24 hours, and extra medium added 2 days later. Experiments conducted with DAPT were treated with 20 μM, while corresponding control conditions had DMSO added at a 1:500 dilution.

D5 HE:DLL4- = assay: Blood production from D5 HE:DLL4- in OP9 co-culture with NOTCH inhibition; format: cell-based, human; settings: DAPT 20 μM
Protocol: as §2

[1] = test system: cells collected from D4+4 HE cultures; assay: Hematopoietic colony forming unit assay; format: cell-based, human; settings: cells from D4+4 HE cultures in methocellulose, vs control
Protocol: Hematopoietic colony forming unit assay was conducted in serum-containing H4436 Methocult (Stem Cell Technologies) as previously described^26, 35.

HES1 = assay: qPCR of NOTCH1 target gene HES1 in D4 HE; format: cell-based, human; settings: D4 HE cultured for 12 hours (D4+0.5)
Protocol: as §1, with “CO2).” for “CO2). On day 2, the medium was changed to IF9S medium supplemented with FGF2, VEGF (50 ng/ml, Peprotech), and 2.5 μM TGFβ inhibitor (SB-431542, Cayman Chemicals). On day 4, cell cultures were singularized and stained with anti-CD31 microbeads (Miltenyi) for 15 minutes. Cells were washed and HE were purified using CD31 antibody and MACS LS columns (Miltenyi).”
Cells were differentiated for the respective days and sorted on a FACS Aria II. RNA was collected using RNA MiniPrep Plus (Invitrogen) and quantified on a NanoDrop (GE Healthcare). […] The reactions were run on a Mastercycler RealPlex Thermal Cycler (Eppendorf) and the expression levels were calculated by minimal cycle threshold values (Ct) normalized to the reference expression of RPL13a. […]

D4 HE = assay: Single-cell deposition assay for endothelial-to-hematopoietic transition on OP9-iDLL4; format: cell-based, human; settings: OP9-iDLL4 without DOX-pretreatment, DAPT 20 μM, compared to control condition
Protocol: One day before single-cell deposition, the OP9-iDLL4 cell line was treated with mitomycin C as described above, and passaged into 96-well plates at a density of 12,500 cells/cm2. OP9-iDLL4 used for the NOTCH activation condition was incubated with doxycycline for 24 hours after passaging into 96-well plates. On the day of single-cell sorting, OP9-iDLL4 medium was changed to αMEM with 10% FBS (GE), TPO, SCF, IL-6 (50 ng/ml), IL-3, FLT3L (10 ng/ml), and DMSO (1:500) for the control, and NOTCH activation conditions, or DAPT (20 μM) for the NOTCH inhibition condition. Day 4 differentiated human pluripotent stem cells were singularized, stained for CD309-PE and CD144-APC (Miltenyi Biotech), and single-cell sorted into individual wells of the 96-well plates using a FACS Aria II. To exclude possibility of doublets, we used a low density (less than 1 million cells/ml) cells suspension, sorting speed less than 1000 cellular events/per second and stringent gating on single cells using both FSC-A vs FSC-H and SSC-A vs SSC-H. One day after sorting, the medium was changed to fresh medium without DMSO or DAPT, and extra medium was added every 3 days. […]

[2] = test system: D4 CD144+CD43-CD73- HE cells; assay: Flow cytometry of CD144/CD43 in secondary culture of D4 HE (hematopoiesis/EHT), serum- and feeder-free; format: cell-based, human
Protocol: Human pluripotent stem cells, H1 hESC line, DF19-9-7T fibroblast-hiPSC line, IISH2i-BM9 bone marrow-iPSC line, and IISH3i-CB6 cord blood-iPSC line, were maintained and passaged in chemically defined conditions using vitronectin and E8 medium, as previously described^85. The human PSCs were differentiated into hematoendothelial lineages using a modified protocol previously described^35. On Day −1, hPSCs were singularized and plated on collagen IV-coated plates (0.5 μg/cm^2) at a cell density of 7,500 cells/cm^2 in E8 medium supplemented with 10 uM Rock inhibitor (Y-27632, Cayman Chemicals). On Day 0, the medium was changed to IF9S medium supplemented with BMP4, FGF2 (50 ng/ml), Activin A (15 ng/ml, Peprotech), LiCl (2 mM, Sigma), and ROCK inhibitor (0.5 μM, Cayman Chemicals) and cultured in hypoxia (5% O2, 5% CO2). On day 2, the medium was changed to IF9S medium supplemented with FGF2, VEGF (50 ng/ml, Peprotech), and 2.5 μM TGFβ inhibitor (SB-431542, Cayman Chemicals). On day 4, cell cultures were singularized and stained with anti-CD31 microbeads (Miltenyi) for 15 minutes. Cells were washed and HE were purified using CD31 antibody and MACS LS columns (Miltenyi). Purified CD31^+ HE were then plated at a density of 20,000 to 30,000 cells/cm^2 on collagen IV-coated plates (1 μg/cm^2) that were either co-coated with IgG-Fc fragments or human DLL1-Fc (made in-house), in IF9S medium supplemented with FGF2, VEGF, EGF, IGF-I, IGF-II, TPO, IL-6 (50 ng/ml), SCF (20 ng/ml), IL-3, FLT3L (10 ng/ml, Peprotech), and ROCK inhibitor (5 μM, Cayman Chemicals), and where specified, DMSO (1:1000, Fisher Scientific) or DAPT (10 μM, Cayman Chemicals), and cultured in normoxia (20% O2, 5% CO2). In some experiments, HE was cultured on plates co-coated with human JAG1-Fc (R&D Systems). A sample of the purified cells was analyzed by flow cytometry, and experiments were continued only if the purity of the HE was over 95% CD144^+. On Day 4+1, the medium was replaced with fresh medium containing the same supplements without ROCK inhibitor. […]

Runx1+23 enhancer = assay: Runx1+23-eGFP reporter flow cytometry; format: cell-based, human; settings: D4 HE cultured with DAPT or on DLL1-Fc
Protocol: Runx1+23 enhancer fragment^33 was amplified by PCR and subsequently cloned into the AAVS-SA-2A-PURO vector (gift from Gadue Lab, The Children's Hospital of Philadelphia). Human ESCs were transfected with zinc-finger nuclease vectors and later puromycin-resistant individual cells were clonally expanded and on-targeted clones were selected, as previously described^38. Southern Blot (SB) analysis was performed by DIG-labeling hybridization (Roche). Briefly, 10 μg genomic DNA was digested using a EcoRV restriction enzyme for overnight, separated on a 0.7% agarose gel for 6 hours, transferred to a nylon membrane (Amersham), and incubated with DIG-labeling probes. The external probe is a DIG-labeled 600 nucleotide fragment that binds to the EcoRV-digested fragment of the 5′ external region. The internal probe is a DIG-labeled 700 nucleotide fragment that binds to the EcoRV-digested fragment of the of the eGFP region.
Flow Cytometry was conducted using the MACSQuant 10 (Miltenyi Biotech). FACS-sorting was conducted on a FACS Aria II (BD) as previously described^26, 35, 86.

[3] = test system: CD34+CD43-CD73- HE progenitors; settings: NOTCH inhibition; cited from earlier work
D4+4 CD43+ cells = assay: T-cell differentiation of D4+4 cultures on OP9-DLL4; format: cell-based, human
Protocol: Total D4+4 cultures were singularized, strained, and cultured in T-cell differentiation conditions on OP9-DLL4 for 3 weeks as described^35. For D5+4 cultures, only the floating hematopoietic cells were collected and cultured in T-cell differentiation conditions. Limiting Dilution Assays were conducted with the floating cells collected from D5+4 cultures (HE:DLL4^− on OP9+DAPT, OP9+DMSO, and OP9-DLL4, and HE:DLL4^+ on OP9-DLL4). Row A of a 96-well plate received 500 cells/well, and each subsequent row afterwards had half the previous row (Row B contained 250, Row C contained 125 . . . Row H contained 3-4 cells). The wells were scored 2 weeks later by eye and flow-cytometry for CD5^+CD7^+ containing cells. Positive threshold was set at 167 CD5^+CD7^+ cells/well. Extreme limiting dilution analysis was conducted using the previously established algorithm^88

D4 CD31+ HE cells = assay: CellTracer proliferation assay and EdU cell cycle analysis; format: cell-based, human
Protocol: D4 CD31^+ HE cells were incubated in PBS with CellTracer (1 μg/ml, Thermo) for 20 minutes at 37° C. After washing, the cells were plated on collagen IV-coated plates with either Fc-IgG or DLL1-Fc and the modified Day 4 medium, as described above, at a higher density of 30,000 to 40,000 cells/cm^2 due to toxicity from the CellTracer. Aliquots of the purified cells were analyzed by flow cytometry to determine the purity of the MACS cells and establish the Generation 0 peak for the proliferation assay. Secondary cultures were collected every day after plating for flow cytometry analysis, and calibration beads were used to generate compatible CellTracer results. After D4+4, FlowJo™ Analysis software was used to concatenate the data from each day. The average number of cell divisions was calculated based on the number of cells on each day (FIG. 1F) and applied to the proliferation platform algorithm in FlowJo™ to determine the specific generation gates. Those peaks were re-applied to individual sets of data to determine the percentage of each generation within the hematoendothelial populations. For cell cycle analysis, D4+4 cells were incubated in culture medium with EdU (10 μM, Thermo Fisher) for 2 hours and stained with CD43 and CD144 antibodies for 20 min. […]

D4 HE cells = assay: Annexin V flow cytometric analysis of apoptosis; format: cell-based, human; settings: D4+4

Question: Which “activated cleaved form of NOTCH1” value (NOTCH1) does the source give for `C[C@H](NC(=O)Cc1cc(F)cc(F)c1)C(=O)N[C@H](C(=O)OC(C)(C)C)c1ccccc1` [DAPT] here?
Answer: decrease

Question: And the “hematopoietic activity of the HE:DLL4+ population” value (D5 HE:DLL4+)?
Answer: significantly inhibited hematopoietic activity

Question: And the “hematopoietic activity of HE:DLL4- cultures” value (D5 HE:DLL4-)?
Answer: no effect on hematopoietic activity

Question: And the “total number of colonies” value [1]?
Answer: significantly lower

Question: What about the “HES1 mRNA expression” value (HES1) of the same compound?
Answer: decreased

Question: What about the “ratio of hematopoietic/endothelial colonies” value (D4 HE) of the same compound?
Answer: markedly decreased

Question: And the “CD43+ HPs” value ([2]; each day from D4+1 to D4+4)?
Answer: decreased CD43+ HPs

Question: And the “CD43hi CD144- cells on D4+2 through D4+4” value ([2]; treated for 24-hours from D4 to D4+1)?
Answer: significant drop

Question: What about the hematopoiesis ([2]; treatment throughout (D4 to D4+4)) of the same compound?
Answer: more profoundly decreased hematopoiesis

Question: What about the “Runx1+23 enhancer activity (eGFP)” value (Runx1+23 enhancer) of the same compound?
Answer: decreases

Question: What about the “production of CD45+ cells” value [3] of the same compound?
Answer: reduces production of CD45^+ cells

Question: What about the “T-cell potential of HPs” value (D4+4 CD43+ cells) of the same compound?
Answer: no T-cell potential

Question: And the “cycling CD43+ cells (EdU)” value (D4 CD31+ HE cells; D4+4)?
Answer: no differences

Question: And the “distribution of CD43+ cells within each generation” value (D4 CD31+ HE cells; D4+4, treated through D4+4)?
Answer: no significant shift

Question: What about the “apoptosis of blood cells post-transition” value (D4 HE cells) of the same compound?
Answer: none of the conditions affected apoptosis
